# Key:
# IRAK3 [1] = biological target: T1, IRAK3 (Homo sapiens, UniProt Q9Y616); test: IRAK endogenous HTRF degradation assay (Total-IRAK3 HTRF kit); format: cell-based; design: IRAK Endogenous HTRF Degradation Assay; endogenous in cells; settings: endogenous IRAK3, overnight incubation; % Dmax = 100 − Ymin
# T1 sequence (Q9Y616 1-596): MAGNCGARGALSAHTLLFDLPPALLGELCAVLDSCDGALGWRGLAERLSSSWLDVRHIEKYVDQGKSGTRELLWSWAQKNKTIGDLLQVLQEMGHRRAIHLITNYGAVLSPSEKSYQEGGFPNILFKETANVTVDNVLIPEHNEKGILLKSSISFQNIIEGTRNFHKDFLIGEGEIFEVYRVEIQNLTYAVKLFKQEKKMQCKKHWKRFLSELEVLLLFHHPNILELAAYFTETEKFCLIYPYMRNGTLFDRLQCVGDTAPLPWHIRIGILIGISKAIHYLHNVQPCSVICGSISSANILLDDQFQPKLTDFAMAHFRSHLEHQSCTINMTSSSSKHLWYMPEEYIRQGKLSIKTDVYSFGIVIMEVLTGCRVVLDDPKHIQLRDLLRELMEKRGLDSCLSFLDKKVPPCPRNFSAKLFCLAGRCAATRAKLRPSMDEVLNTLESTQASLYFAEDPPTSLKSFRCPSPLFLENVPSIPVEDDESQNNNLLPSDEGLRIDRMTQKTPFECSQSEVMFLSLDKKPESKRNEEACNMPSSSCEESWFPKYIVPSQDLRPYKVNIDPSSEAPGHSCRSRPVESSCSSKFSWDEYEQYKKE
# Procedure: Example B2. IRAK Endogenous HTRF Degradation Assay
# Cells (~50k) were plated in Cisbio 96-well low volume white plates (Cisbio: cat #66PL96005). Compounds were dissolved in DMSO and a 3-fold serial dilution was performed using a TECAN D300E. Cells were incubated with the compound overnight. Total-IRAK3 HTRF kit from Cisbio was used for degradation analysis (Cisbio: 63ADK101PEH). Cryptate and D2 antibodies were diluted in Detection buffer as per manufacturers recommendation. Then 2 μL of each solution was added to 16 μL lysate. Buffer control (lysis buffer detection buffer), Cryptate control (lysis buffer+cryptate antibody+detection buffer), and Negative control (lysis buffer+cryptate antibody+D2 antibody) were made as per manufacturers recommendation. Post incubation with antibodies the HTRF signal was measured using a Perkin Elmer Envision reader and the HTRF signal was calculated using formula: (Emission at 665 nm/Emission at 615 nm)*10,000. All HTRF values were normalized to the average value of DMSO. The average value of the DMSO control wells were set to equal 100% of the relative IRAK3 protein levels. Normalized luminescence values were plotted on a graph as a function of compound concentration. Compound concentration was plotted on the x-axis and the corresponding normalized IRAK3 protein levels on the y-axis. The EC50 value (the half-maximum effective concentration) of a compound for the degradation of the IRAK3 was calculated using a four-parameter logistic model (sigmoidal dose-response model) (FIT=(A+{(B−A)/1+[(C/x)D]})) where C is the inflection point (EC50), D is the […], and A and B are the low and high limits of the fit, respectively). The Ymin was calculated by determining the lowest percentage of target protein remaining following compound treatment. Dmax was calculated from Ymin (% Dmax=100−Ymin).
# (§1) Using these assays, IC50, Dmax, EC50, and DC50 values of the following compounds were determined. Dmax is defined as the maximum percent degradation achieved and DC50 is the concentration at which 50% degradation is achieved.
# IRAK3 [2] = biological target: T1, IRAK3; test: IRAK3 biochemical binding assay (LanthaScreen Eu Kinase Binding, TR-FRET); settings: 10 nM tracer, 10 nM IRAK3, 1 hour at room temperature
# Procedure: Example B3. IRAK3 Biochemical Binding Assay
# The LanthaScreen® Eu Kinase Binding assay was performed as described by the vendor (ThermoFisher Scientific Waltham, MA). Briefly, 100× solutions of compound were prepared in DMSO via serial dilution of the 10 mM stock solution in a 384-well reagent plate using 3-fold intervals to achieve final concentrations. 1 μL of the compound dilution series were added to the corresponding wells of a 384-well reagent plate containing 32.3 μL of 1× buffer (50 mM HEPES pH 7.4, […], 1 mM EGTA, 0.01% Brij-35). 5 μL of the buffer diluted compounds were transferred to the corresponding wells of a 384-well assay plate. 5 μL of 3× tracer was transferred to each well of the assay plate for a final tracer concentration of 10 nM. Finally, 5 μL of the 3× Eu-Anti-GST and IRAK3 mix was transferred to each well for a final concentration of 2 nM and 10 nM, respectively. Reactions were allowed to incubate for 1 hour at room temperature. TR-FRET signal of the interaction ([…]/λem 665/λem 615) was read at room temperature with a delay time of 100 μs and an integration time of 200 μs using an Envision plate reader. Background corrected emission signal ratios at each compound concentration were used to calculate percentage of inhibition (% o Inhibition). Plots of % Inhibition versus inhibitor concentrations were fit according to a dose-response equation (Eq. 1) to generate IC50 and Hill slope values using Dotmatics software (Dotmatics, Bishops Storford, Hertfordshire, England).
# as §1
SMILES,Dmax (IRAK3 [1]) [%],IC50 (IRAK3 [2]) [nM]
"C[C@@H](Oc1cc(-c2cnn(C3CCN(CCNC(=O)COc4ccc5c(c4)C(=O)N(C4CCC(=O)NC4=O)C5=O)CC3)c2)cnc1N)c1c(Cl)ccc(F)c1Cl (stereo partly drawn) [Compound 13, N-(2-(4-(4-(6-amino-5-((R)-1-(2,6-dichloro-3-fluorophenyl)ethoxy)pyridin-3-yl)-1H-pyrazol-1-yl)piperidin-1-yl)ethyl)-2-((2-(2,6-dioxopiperidin-3-yl)-1,3-dioxoisoindolin-5-yl)oxy)acetamide]",65,16
"C[C@@H](Oc1cc(-c2cnn(C3CCN(C4CCC5(CC4)CCN(C(=O)c4cccc6c4CN(C4CCC(=O)NC4=O)C6=O)CC5)CC3)c2)cnc1N)c1c(Cl)ccc(F)c1Cl (stereo partly drawn) [Compound 21, 3-(4-(9-(4-(4-(6-amino-5-((R)-1-(2,6-dichloro-3-fluorophenyl)ethoxy)pyridin-3-yl)-1H-pyrazol-1-yl)piperidin-1-yl)-3-azaspiro[5.5]undecane-3-carbonyl)-1-oxoisoindolin-2-yl)piperidine-2,6-dione]",68,2
"C[C@@H](Oc1cc(-c2cnn(C3CCN(CCOCCOCCOCCNC(=O)COc4cccc5c4C(=O)N(C4CCC(=O)NC4=O)C5=O)CC3)c2)cnc1N)c1c(Cl)ccc(F)c1Cl (stereo partly drawn) [Compound 11, N-(2-(2-(2-(2-(4-(4-(6-amino-5-((R)-1-(2,6-dichloro-3-fluorophenyl)ethoxy)pyridin-3-yl)-1H-pyrazol-1-yl)piperidin-1-yl)ethoxy)ethoxy)ethoxy)ethyl)-2-((2-(2,6-dioxopiperidin-3-yl)-1,3-dioxoisoindolin-4-yl)oxy)acetamide]",38,95
"C[C@@H](Oc1cc(-c2cnn(C3CCN(CCOCCOCCNC(=O)COc4cccc5c4C(=O)N(C4CCC(=O)NC4=O)C5=O)CC3)c2)cnc1N)c1c(Cl)ccc(F)c1Cl (stereo partly drawn) [Compound 10, N-(2-(2-(2-(4-(4-(6-amino-5-((R)-1-(2,6-dichloro-3-fluorophenyl)ethoxy)pyridin-3-yl)-1H-pyrazol-1-yl)piperidin-1-yl)ethoxy)ethoxy)ethyl)-2-((2-(2,6-dioxopiperidin-3-yl)-1,3-dioxoisoindolin-4-yl)oxy)acetamide]",37,27

# The remaining compounds from weak to strong by IC50 (IRAK3 [2]), led by results:
Dmax (IRAK3 [1]) [%],IC50 (IRAK3 [2]) [nM],SMILES
56,108,"Cc1ncsc1-c1ccc(CNC(=O)[C@@H]2C[C@@H](O)CN2C(=O)[C@@H](NC(=O)COCCOCCOCCOCCOCCOCCN2CCC(n3cc(-c4cnc(N)c(O[C@H](C)c5c(Cl)ccc(F)c5Cl)c4)cn3)CC2)C(C)(C)C)cc1 [Compound 6, (2S,4R)-1-((S)-23-(4-(4-(6-amino-5-((R)-1-(2,6-dichloro-3-fluorophenyl)ethoxy)pyridin-3-yl)-1H-pyrazol-1-yl)piperidin-1-yl)-2-(tert-butyl)-4-oxo-6,9,12,15,18,21-hexaoxa-3-azatricosanoyl)-4-hydroxy-N-(4-(4-methylthiazol-5-yl)benzyl)pyrrolidine-2-carboxamide]"
20,64,"C[C@@H](Oc1cc(-c2cnn(C3CCN(CCOCCOCCNC(=O)COc4ccc5c(c4)C(=O)N(C4CCC(=O)NC4=O)C5=O)CC3)c2)cnc1N)c1c(Cl)ccc(F)c1Cl (stereo partly drawn) [Compound 15, N-(2-(2-(2-(4-(4-(6-amino-5-((R)-1-(2,6-dichloro-3-fluorophenyl)ethoxy)pyridin-3-yl)-1H-pyrazol-1-yl)piperidin-1-yl)ethoxy)ethoxy)ethyl)-2-((2-(2,6-dioxopiperidin-3-yl)-1,3-dioxoisoindolin-5-yl)oxy)acetamide]"
33,56,"C[C@@H](Oc1cc(-c2cnn(C3CCN(CCOCCOCCOCCOCCNC(=O)COc4cccc5c4C(=O)N(C4CCC(=O)NC4=O)C5=O)CC3)c2)cnc1N)c1c(Cl)ccc(F)c1Cl (stereo partly drawn) [Compound 12, N-(14-(4-(4-(6-amino-5-((R)-1-(2,6-dichloro-3-fluorophenyl)ethoxy)pyridin-3-yl)-1H-pyrazol-1-yl)piperidin-1-yl)-3,6,9,12-tetraoxatetradecyl)-2-((2-(2,6-dioxopiperidin-3-yl)-1,3-dioxoisoindolin-4-yl)oxy)acetamide]"
37,25,"C[C@@H](Oc1cc(-c2cnn(C3CCN(CCNC(=O)COc4cccc5c4C(=O)N(C4CCC(=O)NC4=O)C5=O)CC3)c2)cnc1N)c1c(Cl)ccc(F)c1Cl (stereo partly drawn) [Compound 8, N-(2-(4-(4-(6-amino-5-((R)-1-(2,6-dichloro-3-fluorophenyl)ethoxy)pyridin-3-yl)-1H-pyrazol-1-yl)piperidin-1-yl)ethyl)-2-((2-(2,6-dioxopiperidin-3-yl)-1,3-dioxoisoindolin-4-yl)oxy)acetamide]"
73,10,"C[C@@H](Oc1cc(-c2cnn(C3CCN(C4CCC5(CC4)CCN(C(=O)c4ccc6c(c4)CN(C4CCC(=O)NC4=O)C6=O)CC5)CC3)c2)cnc1N)c1c(Cl)ccc(F)c1Cl (stereo partly drawn) [Compound 20, 3-(5-(9-(4-(4-(6-amino-5-((R)-1-(2,6-dichloro-3-fluorophenyl)ethoxy)pyridin-3-yl)-1H-pyrazol-1-yl)piperidin-1-yl)-3-azaspiro[5.5]undecane-3-carbonyl)-1-oxoisoindolin-2-yl)piperidine-2,6-dione]"
42,4,"C[C@@H](Oc1cc(-c2cnn(C3CCN(C4CCC5(CC4)CCN(C(=O)c4ccc6c(c4)C(=O)N(C4CCC(=O)NC4=O)C6)CC5)CC3)c2)cnc1N)c1c(Cl)ccc(F)c1Cl (stereo partly drawn) [Compound 19, 3-(6-(9-(4-(4-(6-amino-5-((R)-1-(2,6-dichloro-3-fluorophenyl)ethoxy)pyridin-3-yl)-1H-pyrazol-1-yl)piperidin-1-yl)-3-azaspiro[5.5]undecane-3-carbonyl)-1-oxoisoindolin-2-yl)piperidine-2,6-dione]"
